Source: article PMC12257073 (Cancer Research Communications, 2025)
Where two headings read alike, the source gives them in different places.

How the values were obtained:
[1] = Plasma pharmacokinetics of TP-0903 and metabolites (LC-MS/MS, noncompartmental analysis); type: in vivo, human; details: for Pre-treatment trough / Cmax / Tmax / AUC(0-t) / concentration at 24 h: median (range); for Cmax / Tmax / AUC(0-t) / concentration at 24 h: human, plasma, oral; for AUC(0-t): read-out: AUC0-24h; for concentration at 24 h: read-out: C24h trough
Description: On days 1 and 10 of cycle 1, plasma samples were collected for PK analysis from a total of 25 patients. In the phase 1b study portion of the study, plasma was collected before administration of TP-0903 on day 10 and at 0.5, 1, 2, 4, 8, and 24 hours after administration of TP-0903 on days 1 and 10. In the phase 2 portion of the study, plasma was collected at 2, 4, and 24 hours after drug administration. A validated ultrahigh-performance LC-MS/MS method was developed and used to quantify TP-0903 and its four major metabolites (M2, M3, M4, and M6) in plasma.
TP-0903 and its metabolites M2, M3, M4, and M6 were quantified in plasma using solid phase extraction and LC-MS/MS in the Ohio State University Comprehensive Cancer Center Pharmacoanalytical Shared Resource. See Supplementary Methods for details.
Sample preparation comprised 200 µL of K2EDTA plasma sample combined with 5 µL of 150 ng/mL internal standard mixture (TP-0903-d8 (NSN23293), M2-d8 (NSN23290), M3-d8 (NSN23292), M4-d8 (NSN23291), and M6-d8 (NSN23296)), 50 µL deionized (DI) water, and 50 µL of methanol in the wells of a 2-mL 96-well plate. Reference standards for TP-0903 (ditartrate salt), metabolites, and internal standards were obtained from Sumitomo Pharma America, Inc. (formerly Sumitomo Pharma Oncology, Inc.). Sample preparation was followed by shaking at 500 rpm for 5 minutes at room temperature and the addition of 1 mL of 0.1M sodium carbonate (791768-500G). After centrifugation at 3095 rcf for 10 minutes, 1 mL of supernatant was loaded onto a conditioned 30 mg HLB SPE plate (conditioning included 1 mL methanol flow through followed by 1 mL water flow through). After samples were loaded and passed through the SPE plate using a vacuum, the plate was washed with 1 mL DI water. Once the water passed through, analyte elution was done by loading 1 mL 2% formic acid in methanol, followed by drying with N2 gas heated to 40 °C. Once dried, they were resuspended with 100 µL reconstitution solution (22% acetonitrile, 22% methanol, 56% DI water, 0.5 mM ammonium acetate, and 0.2% formic acid). The chromatographic method utilized a gradient elution with mobile phase A (MPA; 15% acetonitrile, 15% methanol, 70% DI water, 0.5 mM ammonium acetate, and 0.2% formic acid) and mobile phase B (MPB; 45% acetonitrile, 45% methanol, 10% DI water, 0.5 mM ammonium acetate (09689-100G), and 0.2% formic acid (F0441-32)). The flow rate begins at 0.4 mL/min with 25% MPB, at 2.5 min the flow rate increased to 0.6 mL/min, at 5.5 minutes the %MPB increased to 100%, at 7.01 min the flow rate and %MPB decreased to 0.4 mL/min and 25%, respectively, until the end of the run. This method was run using an ACE Excel SuperC18 (3.0 x 75 mm, 5 µm, 90Å) column (EXL-1211-7503) with a ThermoFisher Scientific Vanquish™ – ThermoFisher Scientific (SCR_025713) TSQ Altis LC-MS/MS system (TSQ02-10002). The analytes and internal standards were evaluated in positive mode with the transitions monitored including M2 488.12->402.125, M2-d8 496.25->402.095, M3 502.2->402.113, M3-d8 510.2->402.113, M4 502.138->416.125, M4-d8 510.188->416.125, M6 518.112->402, M6-d8 526.2->402.113, and TP-0903 516.2->416.125, TP-0903-d8 524.237->416.125. […] Three quality control samples (QC Low, QC Medium, and QC High) were monitored during sample analyses to ensure the accuracy of assay quantitation. Additionally, a validation was performed that included the evaluation of selectivity, matrix effects, sensitivity, carry-over, freeze-thaw stability, processed sample stability, recovery, and dilution integrity (20X and 10X). Intra- and inter- day accuracy and precision of the calibrators and quality control samples, which also included the LLOQ for each analyte, was evaluated over 3 days. The quality control samples concentrations were continually monitored by statistical analysis of runs using Westgard rules (13s, 22s, R4s, and 10x) and adherence to FDA guidance of being within 15% except at the LLOQ of being within 20%. […]

[2] = system: TP53; assay: TP53 variant allele frequency by serial targeted next-generation sequencing; type: in vivo, human
Description: Mutations in germline and serial bone marrow or blood samples were determined by targeted next-generation sequencing (NGS). NGS aligned read files are available in the NCBI’s Sequence Read Archive under accession PRJNA1236309. See Supplementary Methods for details.
Genomic DNA was isolated from cryopreserved cells with QIAmp DNA Mini Kit (Qiagen) and fragmented using ME220 Focused-ultrasonicator (Covaris; SCR_019818). Libraries were generated using xGen™ DNA Lib Prep MC UNI kit and target capture was done using xGen AML Cancer Hybridization Panel in conjunction with a 3 gene spike-in pool for ZRSR2, AXL, and ASXL2 (Integrated DNA Technologies). DNA library preparations were performed according to the manufacturer’s instructions and sequenced on an Illumina Novaseq (OSUCCC Genomics Shared Resource) (SCR_016387). Sequenced reads were aligned to the GRCh38 genome build using the Burrows-Wheeler Aligner (BWA) (SCR_010910). Picard Tools was used to perform UMI-consensus calling on the aligned reads. The Genome Analysis Toolkit (GATK) (SCR_001876) was used to realign insertions and deletions in the aligned reads and to perform base quality score recalibration for those realigned regions. GATK’s MuTect2 (SCR_026692) was used to perform variant calling. After variant calling, variants were annotated using SnpEff (SCR_005191) and vcfanno (SCR_024372) along with the dbsnp (SCR_002338), COSMIC (SCR_002260), and gnomad variant databases (SCR_014964). The Mucor3 algorithm was used as the baseline for integrative mutation assessment. Visual inspection of all variants was carried out using Integrative Genomics Viewer v.2.8 (Broad Institute).

[3] = TP-0903 dose 25mg, Day 10 of course 1, plasma
[4] = TP-0903 dose 37 mg, Day 10 of course 1, plasma
[5] = 25 mg, TP-0903 dose 25mg, Day 1 of course 1, plasma
[6] = 25 mg, TP-0903 dose 25mg, Day 10 of course 1, plasma
[7] = 37 mg, TP-0903 dose 37 mg, Day 1 of course 1, plasma
[8] = 37 mg, TP-0903 dose 37 mg, Day 10 of course 1, plasma

CN1CCN(Cc2ccc(Nc3ncc(Cl)c(Nc4ccccc4S(=O)(=O)N(C)C)n3)cc2)CC1.O=C(O)C(O)C(O)C(=O)O.O=C(O)C(O)C(O)C(=O)O [TP-0903, 2-(5-chloro-2-(4-((4-methylpiperazin-1-yl)methyl)phenylamino)pyrimidin-4-yl)amino-N,N-dimethylbenzene-1-sulfonamide di-tartrate salt]
Steady-state TP-0903 plasma exposure (Css Min on Day 10), responders vs non-responders ([1]; Supplementary Fig. S3A): no significant difference
Decrease in absolute neutrophil count or platelets in patients with steady-state plasma exposure above the median ([1]; Supplementary Fig. S3B, S3C): did not have a greater decrease
Pre-treatment trough [1, 3]: 7.1 (3.3-17) ng/mL
Pre-treatment trough [1, 4]: 5.3 (1.0-21) ng/mL
Drug accumulation ratio ([1]; based on the median AUC, day 10 vs day 1, both groups): six
Variation in the steady-state Cmax of parent TP-0903 ([1]; both groups (37 mg and 25 mg)): > 25 fold
Cmax [1, 5]: 2.4 ng/mL
Tmax [1, 5]: 2.8 h
AUC(0-t) ([1]; 25 mg, TP-0903 dose 25mg, Day 1 of course 1, plasma, N=11): 42 ng·h/mL
Cmax [1, 6]: 14 ng/mL
Tmax [1, 6]: 3.5 h
AUC(0-t) ([1]; 25 mg, TP-0903 dose 25mg, Day 10 of course 1, plasma, N=8): 260 ng·h/mL
Cmax [1, 7]: 3.3 ng/mL
Tmax [1, 7]: 2.1 h
AUC(0-t) ([1]; 37 mg, TP-0903 dose 37 mg, Day 1 of course 1, plasma, N=10): 36 ng·h/mL
Cmax [1, 8]: 13 ng/mL
Tmax [1, 8]: 3.9 h
AUC(0-t) ([1]; 37 mg, TP-0903 dose 37 mg, Day 10 of course 1, plasma, N=9): 210 ng·h/mL
concentration at 24 h ([1]; TP-0903 dose 25mg, Day 1 of course 1, plasma): 1.9 ng/mL
concentration at 24 h [1, 3]: 8.1 ng/mL
concentration at 24 h ([1]; TP-0903 dose 37 mg, Day 1 of course 1, plasma): 0.7 ng/mL
concentration at 24 h [1, 4]: 5.8 ng/mL
Change in TP53 VAF ([2]; patients who achieved CR, n = 5, P < 0.01): significantly decreased
Change in TP53 VAF ([2]; patients who achieved CRh/CRi/MLFS, n = 7, P < 0.01): significantly decreased
Change in TP53 VAF ([2]; patients who had SD, treatment failure, or early death, n = 3): not significantly changed
